Source: PubChem BioAssay (NCI)
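All cell lines were grown in 96-well plates and treated with compound for 48 hours. TGI: total growth inhibition.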

Tests used:
Experiment in all cases: NCI-60 cell line screen, 48 h
NCI/ADR-RES ovarian = tested on: NCI/ADR-RES ovarian
SK-MEL-2 melanoma = tested on: SK-MEL-2 melanoma
SF-295 CNS = tested on: SF-295 CNS
IGROV1 ovarian = tested on: IGROV1 ovarian
MCF7 breast = tested on: MCF7 breast
COLO 205 colon = tested on: COLO 205 colon
RPMI-8226 leukemia = tested on: RPMI-8226 leukemia
HT29 colon = tested on: HT29 colon
OVCAR-4 ovarian = tested on: OVCAR-4 ovarian
RXF 393 renal = tested on: RXF 393 renal
PC-3 prostate = tested on: PC-3 prostate
HCT-116 colon = tested on: HCT-116 colon
M14 melanoma = tested on: M14 melanoma
MDA-MB-231 breast = tested on: MDA-MB-231 breast
SN12C renal = tested on: SN12C renal
TK-10 renal = tested on: TK-10 renal
HOP-92 NSCLC = tested on: HOP-92 NSCLC
KM12 colon = tested on: KM12 colon
SK-MEL-5 melanoma = tested on: SK-MEL-5 melanoma
SK-MEL-28 melanoma = tested on: SK-MEL-28 melanoma
HOP-62 NSCLC = tested on: HOP-62 NSCLC
U251 CNS = tested on: U251 CNS
OVCAR-8 ovarian = tested on: OVCAR-8 ovarian
NCI-H226 lung = tested on: NCI-H226 lung
HL-60(TB) leukemia = tested on: HL-60(TB) leukemia
OVCAR-3 ovarian = tested on: OVCAR-3 ovarian
786-0 renal = tested on: 786-0 renal
UACC-257 melanoma = tested on: UACC-257 melanoma
SR leukemia = tested on: SR leukemia
SF-268 CNS = tested on: SF-268 CNS
BT-549 breast = tested on: BT-549 breast
A498 renal = tested on: A498 renal
NCI-H460 lung = tested on: NCI-H460 lung
EKVX NSCLC = tested on: EKVX NSCLC
LOX IMVI melanoma = tested on: LOX IMVI melanoma
MDA-MB-435 = tested on: MDA-MB-435
SF-539 CNS = tested on: SF-539 CNS
CCRF-CEM leukemia = tested on: CCRF-CEM leukemia
K-562 leukemia = tested on: K-562 leukemia
SK-OV-3 ovarian = tested on: SK-OV-3 ovarian
HS 578T breast = tested on: HS 578T breast
A549 NSCLC = tested on: A549 NSCLC
MOLT-4 leukemia = tested on: MOLT-4 leukemia
HCC-2998 colon = tested on: HCC-2998 colon
MDA-N = tested on: MDA-N
UACC-62 melanoma = tested on: UACC-62 melanoma
HCT-15 colon = tested on: HCT-15 colon
UO-31 renal = tested on: UO-31 renal
MALME-3M melanoma = tested on: MALME-3M melanoma
OVCAR-5 ovarian = tested on: OVCAR-5 ovarian
ACHN renal = tested on: ACHN renal
DU-145 prostate = tested on: DU-145 prostate
T-47D breast = tested on: T-47D breast
SNB-19 CNS = tested on: SNB-19 CNS
CAKI-1 renal = tested on: CAKI-1 renal
NCI-H23 lung = tested on: NCI-H23 lung
SNB-75 CNS = tested on: SNB-75 CNS
SW-620 colon = tested on: SW-620 colon
NCI-H522 lung = tested on: NCI-H522 lung

O=CC(I)=C(c1ccccc1)c1ccccc1
TGI (NCI/ADR-RES ovarian): 45.1 µM
TGI (SK-MEL-2 melanoma): 33.4 µM
TGI (SF-295 CNS): 31.6 µM
TGI (IGROV1 ovarian): 37.5 µM
TGI (MCF7 breast): 31.9 µM
TGI (COLO 205 colon): 32.4 µM
TGI (RPMI-8226 leukemia): > 59 µM
TGI (HT29 colon): 29.4 µM
TGI (OVCAR-4 ovarian): 27.3 µM
TGI (RXF 393 renal): 41.4 µM
TGI (PC-3 prostate): 29.3 µM
TGI (HCT-116 colon): 27.2 µM
TGI (M14 melanoma): 35.2 µM
TGI (MDA-MB-231 breast): 29 µM
TGI (SN12C renal): 45.3 µM
TGI (TK-10 renal): 44.8 µM
TGI (HOP-92 NSCLC): 38.1 µM
TGI (KM12 colon): 28.7 µM
TGI (SK-MEL-5 melanoma): 31.9 µM
TGI (SK-MEL-28 melanoma): 31.8 µM
TGI (HOP-62 NSCLC): 32 µM
TGI (U251 CNS): 30.2 µM
TGI (OVCAR-8 ovarian): 53.8 µM
TGI (NCI-H226 lung): 57 µM
TGI (HL-60(TB) leukemia): 38.6 µM
TGI (OVCAR-3 ovarian): 17.7 µM
TGI (786-0 renal): 28.9 µM
TGI (UACC-257 melanoma): 42.3 µM
TGI (SR leukemia): 27.9 µM
TGI (SF-268 CNS): > 56.8 µM
TGI (BT-549 breast): 30 µM
TGI (A498 renal): 41.8 µM
TGI (NCI-H460 lung): 32.8 µM
TGI (EKVX NSCLC): 36 µM
TGI (LOX IMVI melanoma): 28.6 µM
TGI (MDA-MB-435): 31.4 µM
TGI (SF-539 CNS): 45.3 µM
TGI (CCRF-CEM leukemia): > 69.9 µM
TGI (K-562 leukemia): > 71 µM
TGI (SK-OV-3 ovarian): 29.9 µM
TGI (HS 578T breast): 63 µM
TGI (A549 NSCLC): 36.1 µM
TGI (MOLT-4 leukemia): 72.3 µM
TGI (HCC-2998 colon): 35.8 µM
TGI (MDA-N): 35.4 µM
TGI (UACC-62 melanoma): 34.5 µM
TGI (HCT-15 colon): 28.4 µM
TGI (UO-31 renal): 29.1 µM
TGI (MALME-3M melanoma): 30.8 µM
TGI (OVCAR-5 ovarian): 40.7 µM
TGI (ACHN renal): 38.1 µM
TGI (DU-145 prostate): 32.7 µM
TGI (T-47D breast): 34.9 µM
TGI (SNB-19 CNS): 30.1 µM
TGI (CAKI-1 renal): 30.4 µM
TGI (NCI-H23 lung): 46.9 µM
TGI (SNB-75 CNS): > 52.7 µM
TGI (SW-620 colon): 19.9 µM
TGI (NCI-H522 lung): 32.3 µM

Cn1c2ccccc2c2ccc3c(c21)C(=O)c1ccc2c4ccccc4n(C)c2c1C3=O
TGI (NCI/ADR-RES ovarian): > 100 µM
TGI (SK-MEL-2 melanoma): > 100 µM
TGI (SF-295 CNS): > 100 µM
TGI (IGROV1 ovarian): > 100 µM
TGI (MCF7 breast): > 100 µM
TGI (COLO 205 colon): > 100 µM
TGI (RPMI-8226 leukemia): > 100 µM
TGI (HT29 colon): > 100 µM
TGI (OVCAR-4 ovarian): > 100 µM
TGI (RXF 393 renal): > 100 µM
TGI (PC-3 prostate): > 100 µM
TGI (HCT-116 colon): > 100 µM
TGI (M14 melanoma): > 100 µM
TGI (MDA-MB-231 breast): > 100 µM
TGI (SN12C renal): > 100 µM
TGI (TK-10 renal): > 100 µM
TGI (HOP-92 NSCLC): > 100 µM
TGI (KM12 colon): > 100 µM
TGI (SK-MEL-5 melanoma): > 100 µM
TGI (SK-MEL-28 melanoma): > 100 µM
TGI (HOP-62 NSCLC): > 100 µM
TGI (U251 CNS): > 100 µM
TGI (OVCAR-8 ovarian): > 100 µM
TGI (NCI-H226 lung): > 100 µM
TGI (HL-60(TB) leukemia): > 100 µM
TGI (OVCAR-3 ovarian): > 100 µM
TGI (786-0 renal): > 100 µM
TGI (UACC-257 melanoma): > 100 µM
TGI (SR leukemia): > 100 µM
TGI (SF-268 CNS): > 100 µM
TGI (BT-549 breast): > 100 µM
TGI (A498 renal): > 100 µM
TGI (NCI-H460 lung): > 100 µM
TGI (EKVX NSCLC): > 100 µM
TGI (LOX IMVI melanoma): > 100 µM
TGI (MDA-MB-435): > 100 µM
TGI (SF-539 CNS): > 100 µM
TGI (CCRF-CEM leukemia): > 100 µM
TGI (K-562 leukemia): > 100 µM
TGI (SK-OV-3 ovarian): > 100 µM
TGI (HS 578T breast): > 100 µM
TGI (A549 NSCLC): > 100 µM
TGI (MOLT-4 leukemia): > 100 µM
TGI (HCC-2998 colon): > 100 µM
TGI (MDA-N): > 100 µM
TGI (UACC-62 melanoma): > 100 µM
TGI (HCT-15 colon): > 100 µM
TGI (UO-31 renal): > 100 µM
TGI (MALME-3M melanoma): > 100 µM
TGI (OVCAR-5 ovarian): > 100 µM
TGI (ACHN renal): > 100 µM
TGI (DU-145 prostate): > 100 µM
TGI (T-47D breast): > 100 µM
TGI (SNB-19 CNS): > 100 µM
TGI (CAKI-1 renal): > 100 µM
TGI (NCI-H23 lung): > 100 µM
TGI (SNB-75 CNS): > 100 µM
TGI (SW-620 colon): > 100 µM
TGI (NCI-H522 lung): > 100 µM
